Data published in patent US6395782B1, “Method of increasing longevity and preventing body weight wasting in autoimmune disease by using conjugated linoleic acid” (Wisconsin Alumni Research Foundation, priority 2001, dated 2002).

Legend:
NZB/W F1 mice [1] = test: CLA diet given after onset of proteinuria in NZB/W F1 mice (SLE model): survival and body weight; type: in vivo; settings: p<0.05
Source text: Materials. Conjugated linoleic acid (Natural Lipids Inc, Hovdebygda, Norway) contained 90% CLA (CLA-90) with the following C18:2 isomer distribution: 43.5% t10,c12, 41.9% c9,t11 and t9,c11, 1.5% t9,t11 and t10,t12, 0.9% c9,c11, 0.9% c10,c12. Other fatty acids in CLA-90 were 5.6% oleate, 1.4% palmitate, 0.5% linoleate, 0.4% stearate, and 3.4% unidentified compounds. All other chemicals and reagents were purchased from Sigma Chemical Co. (St. Louis, Mo.) unless specified.
Diet. Semi-purified powdered diet (TD94060, 99% basal mix, Harlan-Teklad, Madison, Wis.) was mixed with 0.5% oil (either CLA or corn oil) and 0.5% sucrose by weight, such that the final diet contained either 5.5% corn oil (control group) or 5% corn oil plus 0.5% CLA (CLA group) (Park Y et al., Lipids 32, 853 (1997)). […]
Animals. […] Once proteinuria was detected the mice were assigned either the control diet or 0.5% conjugated linoleic acid for the remainder of their life. […]
Feed Intake and Body Weight. Weekly body weight and survival of the mice were recorded from the beginning of the experiment to the time of death.
Urine Collection and Proteinuria Assay. […] Plates were mildly shaken for 5 min and the color reactions were read at 600 nm with a microtiter plate reader (Autoreader EL310, Bio-tek Instrument). […]
Statistical Analysis. […] Positive proteinuria ratio was analyzed by Fisher's exact test using a SAS computer program version 5.

[2] = test system: SLE patients and rodent models; test: Comparison of CLA with n-3 fatty acids in SLE patients and rodent models; type: in vivo; settings: CLA vs n-3 fatty acids
Source text: Effects similar to those observed by the applicants can be observed using n-3 fatty acids in SLE patients and rodent models (Fernandes, G., et al., J. Immunol. 152:5979 (1994)). […] To have similar effects of 0.5% diet CLA, as described below, n-3 fatty acids would have to make up about 10% of the diet.

NZB/W F1 mice [3] = settings: dietary CLA fed from weaning onward; cited from earlier work

Substance: Conjugated linoleic acid [CLA]
- prolonging of life span (lived longer than control diet) (NZB/W F1 mice [1]; 0.5% CLA in diet from detection of proteinuria (1 mg protein/ml urine) until death, vs 5.5% corn oil control diet, female NZB/W F1 mice): 55%
- reduction of body weight wasting (control lost more body weight than CLA diet) (NZB/W F1 mice [1]; 0.5% CLA in diet from detection of proteinuria until death, vs control diet, NZB/W F1 mice): 35%
- effectiveness relative to n-3 fatty acids in comparable methods [2]: about 20 times
- anti-DNA antibody production (NZB/W F1 mice [3]): does not significantly affect
- body weight loss vs control mice (NZB/W F1 mice [3]): lost less body weight
- onset of proteinuria (NZB/W F1 mice [3]): accelerates the onset of proteinuria
- survival from the onset of proteinuria vs control mice (NZB/W F1 mice [3]): lived longer
- total lifespan vs control animals (NZB/W F1 mice [3]): did not differ
